Source: patent US10280159B2 (AbbVie Deutschland GmbH & Co. KG, priority 2015, dated 2019)
pEC50: −log10 of the molar value.

Columns and labels:
Assay type in all cases: cell-based
human S1PR4 = biological target: T1, human S1PR4 (Homo sapiens, UniProt O95977); assay: Intracellular Ca2+ release (FLIPR) agonist potency, S1P4; conditions: recombinant CHO-K1 cells expressing human S1PR4, aequorin, Gq/i5; Calcium 5 FLIPR; read-out: S1P4 EC50
T1 construct: host or cells: CHO-K1
T1 sequence (O95977 1-384): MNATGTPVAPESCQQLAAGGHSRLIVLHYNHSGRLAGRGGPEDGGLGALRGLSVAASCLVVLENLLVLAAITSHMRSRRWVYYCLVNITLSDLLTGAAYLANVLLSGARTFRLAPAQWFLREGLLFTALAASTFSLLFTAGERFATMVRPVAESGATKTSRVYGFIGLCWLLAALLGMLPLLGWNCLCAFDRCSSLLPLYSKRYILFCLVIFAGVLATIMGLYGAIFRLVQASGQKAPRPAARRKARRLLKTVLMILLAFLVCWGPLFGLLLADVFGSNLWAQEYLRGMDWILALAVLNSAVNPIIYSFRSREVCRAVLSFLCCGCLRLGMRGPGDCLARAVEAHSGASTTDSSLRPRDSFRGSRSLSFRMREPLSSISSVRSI
Method: (§1) Agonistic activity was measured using the method described below.
(§2) Intracellular Ca^2+ Release
(§3) Agonist potency and intrinsic activity was assessed by measurement of intracellular Ca^2+ release. Recombinant CHO-K1 cells (Euroscreen, Brussels, Belgium) expressing human S1PR5, S1PR1, S1PR3 or S1PR4 receptors, aequorin, and GTP binding protein Gq/i5 were cultured using a medium containing nutrient mixture F-12 Ham (Sigma-Aldrich) with 10% FBS, and 100 μg/mL gentamicin and equilibrated at 5% CO2.
(§4) Phospho-fingolimod was used as positive control. Antagonists were pre-incubated for 10 min with cells before addition of the agonist (phospho-fingolimod at EC80). Measurements were performed using a fluorometric imaging plate reader FLIPR®tetra (Molecular Devices). Agonist at the human S1P receptors were characterized by deducing EC50 (potency) values from a nonlinear fit to the measured fluorescence raw data after normalization to the reference agonist (phospho-fingolimod) curve.

human S1PR1 = biological target: T2, human S1PR1 (Homo sapiens, UniProt P21453); assay: Intracellular Ca2+ release (FLIPR) agonist potency, S1P1; conditions: recombinant CHO-K1 cells expressing human S1PR1, aequorin, Gq/i5; Calcium 5 FLIPR; read-out: S1P1 EC50
T2 construct: host or cells: CHO-K1
Method: as §1, §2, §3, §4

human S1PR5 = biological target: T3, human S1PR5 (Homo sapiens, UniProt Q9H228); assay: Intracellular Ca2+ release (FLIPR) agonist potency, S1P5; conditions: recombinant CHO-K1 cells expressing human S1PR5, aequorin, Gq/i5; Calcium 5 FLIPR; read-out: S1P5 EC50 range
T3 construct: host or cells: CHO-K1
Method: as §1, §2, §3, §4

T2 sequence (P21453 whole entry): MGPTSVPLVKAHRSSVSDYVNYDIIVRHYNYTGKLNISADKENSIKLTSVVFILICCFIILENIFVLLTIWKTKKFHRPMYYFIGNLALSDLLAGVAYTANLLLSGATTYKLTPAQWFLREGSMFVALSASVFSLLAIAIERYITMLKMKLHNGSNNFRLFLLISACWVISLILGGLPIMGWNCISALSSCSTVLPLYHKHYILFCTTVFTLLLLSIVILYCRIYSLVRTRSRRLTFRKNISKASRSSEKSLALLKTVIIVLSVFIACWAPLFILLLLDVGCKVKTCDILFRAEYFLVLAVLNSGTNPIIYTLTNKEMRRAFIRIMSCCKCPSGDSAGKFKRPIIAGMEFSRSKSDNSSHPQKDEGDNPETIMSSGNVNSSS
T3 sequence (Q9H228 whole entry): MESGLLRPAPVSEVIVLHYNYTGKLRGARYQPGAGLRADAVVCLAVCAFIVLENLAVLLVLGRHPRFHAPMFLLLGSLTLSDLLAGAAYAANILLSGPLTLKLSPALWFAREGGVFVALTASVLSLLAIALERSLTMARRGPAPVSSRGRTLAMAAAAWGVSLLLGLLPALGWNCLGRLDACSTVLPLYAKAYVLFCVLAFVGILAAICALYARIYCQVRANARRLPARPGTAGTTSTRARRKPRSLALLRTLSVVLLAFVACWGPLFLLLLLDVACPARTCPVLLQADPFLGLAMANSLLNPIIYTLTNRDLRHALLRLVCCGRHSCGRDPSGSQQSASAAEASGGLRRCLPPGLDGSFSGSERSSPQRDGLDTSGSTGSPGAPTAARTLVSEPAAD

| pEC50 (human S1PR4) | pEC50 (human S1PR1) | pEC50 (human S1PR5) | Compound |
| --- | --- | --- | --- |
| < 6.00 | < 6.00 | 7.00 to 8.00 | O=C(O)C1CN(C2COc3cc(OCc4c(Cl)cccc4Cl)ccc3C2)C1 (single isomer, unassigned) [Compound 144, 1-(7-((2,6-dichlorobenzyl)oxy)chroman-3-yl)azetidine-3-carboxylic acid] |
| < 6.00 | < 6.00 | 6.00 to 7.00 | O=C(O)C1CN(C2COc3cc(OCc4c(Cl)cccc4Cl)ccc3C2)C1 (single isomer, unassigned) [Compound 145, 1-(7-((2,6-dichlorobenzyl)oxy)chroman-3-yl)azetidine-3-carboxylic acid] |
| > 6.00 | < 6.00 | > 8.00 | CCc1cccc(F)c1COc1ccc2c(c1)OCC(N1CC(C(=O)O)C1)C2 (single isomer, unassigned) [Compound 146, 1-(7-((2-ethyl-6-fluorobenzyl)oxy)chroman-3-yl)azetidine-3-carboxylic acid] |
| < 6.00 | < 6.00 | 5.00 to 6.00 | O=C(O)C1CN(C2COc3cc(OCc4ccccc4F)ccc3C2)C1 (centres unmarked) [Compound 3, 1-(7-((2-fluorobenzyl)oxy)chroman-3-yl)azetidine-3-carboxylic acid] |
| < 6.00 | < 6.00 | – | O=C(O)C1CN(C2COc3cc(OCc4c(F)cccc4F)ccc3C2)C1 (centres unmarked) [Compound 60, 1-(7-((2,6-difluorobenzyl)oxy)chroman-3-yl)azetidine-3-carboxylic acid] |
| < 6.00 | < 6.00 | – | O=C(O)CCOC1CCc2cc(OCc3cccc(Cl)c3)ccc2C1 (centres unmarked) [Compound 187, 3-[6-[(3-chlorophenyl)methoxy]tetralin-2-yl]oxypropanoic acid] |
| > 6.00 | < 6.00 | – | Cc1ccccc1COc1ccc2c(c1)CCC(OCC(=O)O)C2 (centres unmarked) [Compound 197, 2-[6-(o-tolylmethoxy)tetralin-2-yl]oxyacetic acid] |

The next lines start with the compound.

| Compound | pEC50 (human S1PR4) | pEC50 (human S1PR1) | pEC50 (human S1PR5) |
| --- | --- | --- | --- |
| CCc1cccc(F)c1COc1ccc2c(c1)OCC(N1CC(C(=O)O)C1)C2 (single isomer, unassigned) [Compound 147, 1-(7-((2-ethyl-6-fluorobenzyl)oxy)chroman-3-yl)azetidine-3-carboxylic acid] | > 6.00 | < 6.00 | > 8.00 |
| CCc1cccc(Cl)c1COc1ccc2c(c1)CCC(OCC(=O)O)C2 (single isomer, unassigned) [Compound 239] | < 6.00 | < 6.00 | 6.00 to 7.00 |
| CCc1cccc(Cl)c1COc1ccc2c(c1)CCC(OCC(=O)O)C2 (single isomer, unassigned) [Compound 240] | < 6.00 | < 6.00 | 7.00 to 8.00 |
| O=C(O)C1CN(C2COc3cc(OCc4cccc(F)c4F)ccc3C2)C1 (centres unmarked) [Compound 51, 1-(7-((2,3-difluorobenzyl)oxy)chroman-3-yl)azetidine-3-carboxylic acid] | < 6.00 | < 6.00 | – |
| O=C(O)COC1CCc2cc(OCc3cc(Cl)ccc3C(F)(F)F)ccc2C1 (centres unmarked) [Compound 153, 2-[6-[[5-chloro-2-(trifluoromethyl)phenyl]methoxy]tetralin-2-yl]oxyacetic acid] | – | < 6.00 | – |
| O=C(O)CCOC1CCc2cc(OCc3ccccc3C(F)(F)F)ccc2C1 (centres unmarked) [Compound 178, 3-[6-[[2-(trifluoromethyl)phenyl]methoxy]tetralin-2-yl]oxypropanoic acid] | – | < 6.00 | 5.00 to 6.00 |
| O=C(O)CCOC1CCc2cc(OCc3cccc(C(F)(F)F)c3)ccc2C1 (centres unmarked) [Compound 193, 3-[6-[[3-(trifluoromethyl)phenyl]methoxy]tetralin-2-yl]oxypropanoic acid] | > 6.00 | < 6.00 | – |
| O=C(O)COC1CCc2cc(OCc3ccc(C(F)(F)F)cc3)ccc2C1 (centres unmarked) [Compound 202, 2-[6-[[4-(trifluoromethyl)phenyl]methoxy]tetralin-2-yl]oxyacetic acid] | < 6.00 | < 6.00 | – |
| O=C(O)COC1CCc2cc(OCc3ccccc3F)ccc2C1 (centres unmarked) [Compound 215, 2-[6-[(2-fluorophenyl)methoxy]tetralin-2-yl]oxyacetic acid] | – | < 6.00 | 5.00 to 6.00 |
